Patent US8802678B2, “Carbonylated (aza) cyclohexanes as dopamine D3 receptor ligands” (Bioprojet, priority 2006, dated 2014)

melting point [°C] | SMILES
130 | COCC(=O)N[C@H]1CC[C@H](CCN2CCN(c3cc(C(C)(C)C)nc(C(C)(C)C)n3)CC2)CC1 [Example 122, N-(4-{2-[4-(2,6-Di-tert-butylpyrimidin-4-yl)piperazin-1-yl]ethyl}cyclohexyl)-2-methoxyacetamide]
210 to 214 | CCOCC(=O)N[C@H]1CC[C@H](CCN2CCN(c3ccccc3OC)CC2)CC1 [Example 123, 2-Ethoxy-N-(4-{2-[4-(2-methoxyphenyl)piperazin-1-yl]ethyl}cyclohexyl)acetamide]
187 | COc1ccccc1N1CCN(CC[C@H]2CC[C@H](NC(=O)CC#N)CC2)CC1 [Example 124, 2-Cyano-N-(4-{2-[4-(2-methoxyphenyl)piperazin-1-yl]ethyl}cyclohexyl)acetamide]
125 to 126 | COCC(=O)N[C@H]1CC[C@H](CCN2CCN(c3ccccc3OC)CC2)CC1 [Example 125, 2-Methoxy-N-(4-{2-[4-(2-methoxyphenyl)piperazin-1-yl]ethyl}cyclohexyl)acetamide]
227 | CC(=O)NCC(=O)N[C@H]1CC[C@H](CCN2CCN(c3ccccc3)CC2)CC1 [Example 128, 2-Acetylamino-N-{4-[2-(4-phenylpiperazin-1-yl)ethyl]cyclohexyl}acetamide]
100 | COCC(=O)N[C@H]1CC[C@H](CCN2CCN(c3ccccc3Cl)CC2)CC1 [Example 129, N-(4-{2-[4-(2-Chlorophenyl)-piperazin-1-yl]ethyl}cyclohexyl)-2-methoxyacetamide]
120 | COCC(=O)N[C@H]1CC[C@H](CCN2CCN(c3cccc4c3CCCC4)CC2)CC1 [Example 130, 2-Methoxy-N-(4-{2-[4-(5,6,7,8-tetrahydronaphthalen-1-yl)piperazin-1-yl]ethyl}cyclohexyl)acetamide]
194 | N#CCC(=O)N[C@H]1CC[C@H](CCN2CCN(c3ccccc3Cl)CC2)CC1 [Example 131, N-(4-{2-[4-(2-Chlorophenyl)-piperazin-1-yl]ethyl}cyclohexyl)-2-cyanoacetamide]
108 | CCOCC(=O)N[C@H]1CC[C@H](CCN2CCN(c3ccccc3Cl)CC2)CC1 [Example 132, N-(4-{2-[4-(2-Chlorophenyl)-piperazin-1-yl]ethyl}cyclohexyl)-2-ethoxyacetamide]
202 | N#CCC(=O)N[C@H]1CC[C@H](CCN2CCN(c3cccc(F)c3)CC2)CC1 [Example 133]
217 | CC(=O)NCC(=O)N[C@H]1CC[C@H](CCN2CCN(c3ccccc3F)CC2)CC1 [Example 134, 2-Acetylamino-N-(4-{2-[4-(2-fluorophenyl)piperazin-1-yl]ethyl}cyclohexyl)acetamide]
179 to 182 | Cc1c(Cl)cccc1N1CCN(CC[C@H]2CC[C@H](NC(=O)CC#N)CC2)CC1 [Example 136, N-(4-{2-[4-(3-Chloro-2-methylphenyl)piperazin-1-yl]ethyl}cyclohexyl)-2-cyanoacetamide]
143 | CCOCC(=O)N[C@H]1CC[C@H](CCN2CCN(c3cccc(Cl)c3C)CC2)CC1 [Example 137, N-(4-{2-[4-(3-Chloro-2-methylphenyl)piperazin-1-yl]ethyl}cyclohexyl)-2-ethoxyacetamide]
186 | N#CCC(=O)N[C@H]1CC[C@H](CCN2CCN(c3cc(C#N)cc(C(F)(F)F)c3)CC2)CC1 [Example 138, 2-Cyano-N-(4-{2-[4-(3-cyano-5-trifluoromethylphenyl)piperazin-1-yl]ethyl}cyclohexyl)acetamide]
140 | COCC(=O)N[C@H]1CC[C@H](CCN2CCN(c3cc(C#N)cc(C(F)(F)F)c3)CC2)CC1 [Example 139, N-(4-{2-[4-(3-Cyano-5-trifluoromethylphenyl)piperazin-1-yl]ethyl}cyclohexyl)-2-methoxyacetamide]
133 | CCOCC(=O)N[C@H]1CC[C@H](CCN2CCN(c3cc(C#N)cc(C(F)(F)F)c3)CC2)CC1 [Example 140, N-(4-{2-[4-(3-Cyano-5-trifluoromethylphenyl)piperazin-1-yl]ethyl}cyclohexyl)-2-ethoxyacetamide]
188 | N#CCC(=O)N[C@H]1CC[C@H](CCN2CCN(c3cccc(Cl)c3Cl)CC2)CC1 [Example 143, 2-Cyano-N-(4-{2-[4-(2,3-dichlorophenyl)piperazin-1-yl]ethyl}cyclohexyl)acetamide]
218 | CC(=O)NCC(=O)N[C@H]1CC[C@H](CCN2CCN(c3cccc(F)c3F)CC2)CC1 [Example 145, 2-Acetylamino-N-(4-{2-[4-(2,3-difluorophenyl)piperazin-1-yl]ethyl}cyclohexyl)acetamide]
192 | Cc1cc(C)cc(N2CCN(CC[C@H]3CC[C@H](NC(=O)CC#N)CC3)CC2)c1 [Example 148, 2-Cyano-N-(4-{2-[4-(3,5-dimethylphenyl)piperazin-1-yl]ethyl}cyclohexyl)acetamide]

melting point [°C] | SMILES
142 | CCc1cccc(N2CCN(CC[C@H]3CC[C@H](NC(=O)CC#N)CC3)CC2)c1 [Example 149, 2-Cyano-N-(4-{2-[4-(3-ethylphenyl)piperazin-1-yl]ethyl}cyclohexyl)acetamide]
177 | CN(C)c1cccc(N2CCN(CC[C@H]3CC[C@H](NC(=O)CC#N)CC3)CC2)c1 [Example 150, 2-Cyano-N-(4-{2-[4-(3-dimethylaminophenyl)piperazin-1-yl]ethyl}cyclohexyl)acetamide]
200 | N#CCC(=O)N[C@H]1CC[C@H](CCN2CCN(c3cc(Cl)cc(Cl)c3)CC2)CC1 [Example 151, 2-Cyano-N-(4-{2-[4-(3,5-dichlorophenyl)piperazin-1-yl]ethyl}cyclohexyl)acetamide]
184 | Cc1ccc(C)c(N2CCN(CC[C@H]3CC[C@H](NC(=O)CC#N)CC3)CC2)c1 [Example 152, 2-Cyano-N-(4-{2-[4-(2,5-dimethylphenyl)piperazin-1-yl]ethyl}cyclohexyl)acetamide]
173 | CC(=O)N1CCC(C(=O)N[C@H]2CC[C@H](CCN3CCN(c4cccc(C(F)(F)F)c4)CC3)CC2)CC1 [Example 153, 1-Acetylpiperidine-4-carboxylic acid (4-{2-[4-(3-trifluoro-methylphenyl)piperazin-1-yl]ethyl}cyclohexyl)amide]
171 to 172 | Cc1ccc(Cl)cc1N1CCN(CC[C@H]2CC[C@H](NC(=O)CC#N)CC2)CC1 [Example 155, N-(4-{2-[4-(5-Chloro-2-methylphenyl)piperazin-1-yl]ethyl}cyclohexyl)-2-cyanoacetamide]
186 to 187 | N#CCC(=O)N[C@H]1CC[C@H](CCN2CCN(c3cccc(Cl)c3)CC2)CC1 [Example 156, N-(4-{2-[4-(3-Chlorophenyl)-piperazin-1-yl]ethyl}cyclohexyl)-2-cyanoacetamide]
173 to 174 | N#CCC(=O)N[C@H]1CC[C@H](CCN2CCN(c3cccc(OC(F)(F)F)c3)CC2)CC1 [Example 157, 2-Cyano-N-(4-{2-[4-(3-trifluoromethoxyphenyl)piperazin-1-yl]ethyl}cyclohexyl)acetamide]
194 | N#CCC(=O)N[C@H]1CC[C@H](CCN2CCN(c3cccc(C(F)(F)F)c3F)CC2)CC1 [Example 158, 2-Cyano-N-(4-{2-[4-(2-fluoro-3-trifluoromethylphenyl)piperazin-1-yl]ethyl}cyclohexyl)acetamide]
196 | N#CCC(=O)N[C@H]1CC[C@H](CCN2CCN(c3cc(F)cc(F)c3)CC2)CC1 [Example 159, 2-Cyano-N-(4-{2-[4-(3,5-difluorophenyl)piperazin-1-yl]ethyl}cyclohexyl)acetamide trans/cis 95/5]
183 to 184 | COc1cc(N2CCN(CC[C@H]3CC[C@H](NC(=O)CC#N)CC3)CC2)cc(C(F)(F)F)c1 [Example 160, 2-Cyano-N-(4-{2-[4-(3-methoxy-5-trifluoromethylphenyl)piperazin-1-yl]ethyl}cyclohexyl)acetamide]
149 | N#CCCCC(=O)N[C@H]1CC[C@H](CCN2CCN(c3cccc(C(F)(F)F)c3)CC2)CC1 [Example 161, 4-Cyano-N-(4-{2-[4-(3-trifluoromethylphenyl)piperazin-1-yl]ethyl}cyclohexyl)butanamide]
188 | N#CCC(=O)N[C@H]1CC[C@H](CCN2CCN(c3ccc(F)cc3F)CC2)CC1 [Example 162, 2-Cyano-N-(4-{2-[4-(2,4-difluorophenyl)piperazin-1-yl]ethyl}cyclohexyl)acetamide]
183 | COc1ccc(C(F)(F)F)cc1N1CCN(CC[C@H]2CC[C@H](NC(=O)CC#N)CC2)CC1 [Example 165, 2-Cyano-N-(4-{2-[4-(2-methoxy-5-trifluoromethylphenyl)piperazin-1-yl]ethyl}cyclohexyl)acetamide]
175 | Cc1cccc(N2CCN(CC[C@H]3CC[C@H](NC(=O)CC#N)CC3)CC2)c1 [Example 166, 2-Cyano-N-{4-[2-(4-m-tolylpiperazin-1-yl)ethyl]cyclohexyl}acetamide]
77 | CCN(CC)CCC(=O)N[C@H]1CC[C@H](CCN2CCN(c3cccc(C(F)(F)F)c3)CC2)CC1 [Example 167, 3-Diethylamino-N-(4-{2-[4-(3-trifluoromethylphenyl)piperazin-1-yl]ethyl}cyclohexyl)propanamide trans/cis 85/15]
150 | CC(C)(C)c1cccc(N2CCN(CC[C@H]3CC[C@H](NC(=O)CC#N)CC3)CC2)c1 [Example 169, N-(4-{2-[4-(3-tert-Butylphenyl)piperazin-1-yl]ethyl}cyclohexyl)-2-cyanoacetamide]
157 to 159 | CCOc1cccc(N2CCN(CC[C@H]3CC[C@H](NC(=O)CC#N)CC3)CC2)c1 [Example 170, 2-Cyano-N-(4-{2-[4-(3-ethoxyphenyl)piperazin-1-yl]ethyl}cyclohexyl)acetamide]

SMILES | melting point [°C]
CC(C)(C)OCC(=O)N[C@H]1CC[C@H](CCN2CCN(c3cccc(C(F)(F)F)c3)CC2)CC1 [Example 135, 2-tert-Butoxy-N-(4-{2-[4-(3-trifluoromethylphenyl)piperazin-1-yl]ethyl}cyclohexyl)acetamide trans/cis 95/5] | 81
